The compounds below were run against T1, PIKfyve (Homo sapiens, UniProt Q9Y2I7) (assay: Degradation of PIKfyve proteins in VCaP tumor cells (24 h, Western blot)). Conditions: 37° C., compared with DMSO control, WB, read-out: DC50 (concentration that achieves 50% degradation activity).
T1 construct: endogenous in cells; host or cells: VCaP
Format: cell-based
Description: Method: 200 μL of cells at a density of 5×10^6 cells/ml were inoculated into a 6-well plate, and then different concentrations of drugs were added. The cells were treated at 37° C. for 24 h. The […] was collected and washed with PBS twice. Then, 100-200 μL of 1×SDS lysate was added, and the cell lysate was collected into a centrifuge tube. The cells were disrupted ultrasonically for 10-20 sec, and boiled for 10 min. Protein samples were subjected to SDS-PAGE electrophoresis at a voltage of 90 V, transferred to PVDF membranes at 110 V, blocked with 5% BSA for 4 h, incubated with primary antibodies (PIKfyve, GAPDH) at 4° C. overnight, and incubated with secondary antibodies (anti-Rabbit IgG or anti-Mouse IgG) at room temperature. The membranes were washed with TBST buffer, developed with an ECL developing solution, and then imaged to obtain protein band signals, with single-concentration WB results as shown in FIG. 1. Compared with the DMSO control group, the concentration that achieves 50% degradation activity is defined as DC50.

T1 sequence (Q9Y2I7 whole entry): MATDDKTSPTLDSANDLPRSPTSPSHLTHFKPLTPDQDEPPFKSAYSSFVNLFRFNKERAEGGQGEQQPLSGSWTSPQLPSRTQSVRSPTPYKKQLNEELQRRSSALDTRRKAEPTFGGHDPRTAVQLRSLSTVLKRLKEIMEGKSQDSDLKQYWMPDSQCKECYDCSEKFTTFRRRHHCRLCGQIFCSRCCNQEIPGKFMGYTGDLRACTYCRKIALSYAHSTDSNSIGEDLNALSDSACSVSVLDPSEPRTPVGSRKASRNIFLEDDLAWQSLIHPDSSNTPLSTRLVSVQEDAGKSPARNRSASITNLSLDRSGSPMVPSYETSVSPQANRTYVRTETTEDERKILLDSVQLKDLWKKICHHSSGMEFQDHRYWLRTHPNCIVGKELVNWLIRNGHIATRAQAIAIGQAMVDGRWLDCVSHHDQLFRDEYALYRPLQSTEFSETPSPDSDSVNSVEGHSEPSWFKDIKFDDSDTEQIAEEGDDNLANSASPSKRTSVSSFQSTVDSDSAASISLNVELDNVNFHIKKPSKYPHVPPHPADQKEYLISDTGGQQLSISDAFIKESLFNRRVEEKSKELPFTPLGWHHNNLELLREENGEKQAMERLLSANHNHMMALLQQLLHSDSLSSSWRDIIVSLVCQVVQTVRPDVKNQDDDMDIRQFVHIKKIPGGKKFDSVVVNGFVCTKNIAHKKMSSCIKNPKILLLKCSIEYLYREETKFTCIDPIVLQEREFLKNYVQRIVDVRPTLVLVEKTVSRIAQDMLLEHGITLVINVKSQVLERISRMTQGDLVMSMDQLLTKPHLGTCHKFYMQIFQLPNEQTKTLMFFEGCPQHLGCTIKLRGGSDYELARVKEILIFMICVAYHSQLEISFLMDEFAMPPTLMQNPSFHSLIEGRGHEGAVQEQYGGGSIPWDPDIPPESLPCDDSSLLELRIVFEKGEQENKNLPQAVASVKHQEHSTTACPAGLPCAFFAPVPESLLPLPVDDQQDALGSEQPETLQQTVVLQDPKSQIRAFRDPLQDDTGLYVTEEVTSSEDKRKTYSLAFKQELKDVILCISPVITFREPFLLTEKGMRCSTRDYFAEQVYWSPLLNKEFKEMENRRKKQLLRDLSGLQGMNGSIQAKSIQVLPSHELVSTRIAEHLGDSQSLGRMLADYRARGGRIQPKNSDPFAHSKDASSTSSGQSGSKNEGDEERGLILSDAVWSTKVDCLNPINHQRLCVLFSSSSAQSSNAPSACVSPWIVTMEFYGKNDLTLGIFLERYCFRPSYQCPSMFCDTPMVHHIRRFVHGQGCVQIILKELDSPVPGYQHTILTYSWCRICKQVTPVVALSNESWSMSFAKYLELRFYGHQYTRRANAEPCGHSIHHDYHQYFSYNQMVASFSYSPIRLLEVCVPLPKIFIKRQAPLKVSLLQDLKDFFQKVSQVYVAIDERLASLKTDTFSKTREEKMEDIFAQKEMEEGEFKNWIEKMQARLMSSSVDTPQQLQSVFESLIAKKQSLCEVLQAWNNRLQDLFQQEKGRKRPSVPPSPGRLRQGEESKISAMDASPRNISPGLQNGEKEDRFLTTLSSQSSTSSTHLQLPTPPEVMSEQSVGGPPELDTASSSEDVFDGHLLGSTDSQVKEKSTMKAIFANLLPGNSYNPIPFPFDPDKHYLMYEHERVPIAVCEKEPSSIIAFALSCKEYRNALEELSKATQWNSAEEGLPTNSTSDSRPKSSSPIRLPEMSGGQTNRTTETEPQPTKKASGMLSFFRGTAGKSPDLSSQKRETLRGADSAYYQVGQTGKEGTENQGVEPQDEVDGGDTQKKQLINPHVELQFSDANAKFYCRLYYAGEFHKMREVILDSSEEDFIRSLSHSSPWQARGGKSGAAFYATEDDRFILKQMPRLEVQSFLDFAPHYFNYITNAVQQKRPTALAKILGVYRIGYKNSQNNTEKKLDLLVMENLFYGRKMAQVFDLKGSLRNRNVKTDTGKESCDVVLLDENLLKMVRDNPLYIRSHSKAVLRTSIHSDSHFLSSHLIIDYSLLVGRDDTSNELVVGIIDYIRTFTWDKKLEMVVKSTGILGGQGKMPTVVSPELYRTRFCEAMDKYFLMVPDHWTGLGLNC

First: Cc1cccc(/C=N/Nc2cc(N3CCOCC3)nc(OCCc3ccc(NC(=O)CCC(=O)N[C@H](C(=O)N4C[C@H](O)C[C@H]4C(=O)NCc4ccc(-c5scnc5C)cc4)C(C)(C)C)cc3)n2)c1 [Example 37, N^1—((S)-1-((2S,4R)-4-hydroxy-2-((4-(4-methylthiazol-5-yl)benzyl)carbamoyl)pyrrolidine-1-yl)-3,3-dimethyl-1-oxobutan-2-yl)-N^4-(4-(2-((4-(2-((E)-3-methylbenzylidene) hydrazino)-6-morpholinopyrimidin-2-yl)oxy)ethyl)phenyl)succinimide]
Second: Cc1cccc(/C=N/Nc2cc(N3CCOCC3)nc(OCCc3ccc(NC(=O)CCCC(=O)N[C@H](C(=O)N4C[C@H](O)C[C@H]4C(=O)NCc4ccc(-c5scnc5C)cc4)C(C)(C)C)cc3)n2)c1 [Example 41, N^1—((S)-1-((2S,4R)-4-hydroxy-2-((4-(4-methylthiazol-5-yl)benzyl)carbamoyl)pyrrolidine-1-yl)-3,3-dimethyl-1-oxobutan-2-yl)-N^5-(4-(2-((4-(2-((E)-3-methylbenzylidene) hydrazino)-6-morpholinopyrimidin-2-yl)oxy)ethyl)phenyl)glutaramide]
The DC50 of the first is higher: 100 to 10000 nM for the first, 1 to 100 nM for the second.

`Cc1cccc(/C=N/Nc2cc(N3CCOCC3)nc(OCCc3ccc(NC(=O)CCCCC(=O)N[C@H](C(=O)N4C[C@H](O)C[C@H]4C(=O)NCc4ccc(-c5scnc5C)cc4)C(C)(C)C)cc3)n2)c1` [Example 38, N^1—((S)-1-((2S,4R)-4-hydroxy-2-((4-(4-methylthiazol-5-yl)benzyl)carbamoyl)pyrrolidine-1-yl)-3,3-dimethyl-1-oxobutan-2-yl)-N^6-(4-(2-((4-(2-((E)-3-methylbenzylidene) hydrazino)-6-morpholinopyrimidin-2-yl)oxy)ethyl)phenyl)adipamide] and `Cc1cccc(/C=N/Nc2cc(N3CCOCC3)nc(OCCc3ccc(NC(=O)CCCCCC(=O)N[C@H](C(=O)N4C[C@H](O)C[C@H]4C(=O)NCc4ccc(-c5scnc5C)cc4)C(C)(C)C)cc3)n2)c1` [Example 42, N^1—((S)-1-((2S,4R)-4-hydroxy-2-((4-(4-methylthiazol-5-yl)benzyl)carbamoyl)pyrrolidine-1-yl)-3,3-dimethyl-1-oxobutan-2-yl)-N^7-(4-(2-((4-(2-((E)-3-methylbenzylidene) hydrazino)-6-morpholinopyrimidin-2-yl)oxy)ethyl)phenyl)heptanediamide] fall in the same range of DC50: 1 to 100 nM for the first, 1 to 100 nM for the second.

`Cc1cccc(/C=N/Nc2cc(N3CCOCC3)nc(OCCc3ccc(NC(=O)CCCCCCC(=O)N[C@H](C(=O)N4C[C@H](O)C[C@H]4C(=O)NCc4ccc(-c5scnc5C)cc4)C(C)(C)C)cc3)n2)c1` [Example 39, N^1—((S)-1-((2S,4R)-4-hydroxy-2-((4-(4-methylthiazol-5-yl)benzyl)carbamoyl)pyrrolidine-1-yl)-3,3-dimethyl-1-oxobutan-2-yl)-N^8-(4-(2-((4-(2-((E)-3-methylbenzylidene) hydrazino)-6-morpholinopyrimidin-2-yl)oxy)ethyl)phenyl)octanediamide] and `Cc1cccc(/C=N/Nc2cc(N3CCOCC3)nc(OCCc3ccc(NC(=O)CCCCCCCC(=O)N[C@H](C(=O)N4C[C@H](O)C[C@H]4C(=O)NCc4ccc(-c5scnc5C)cc4)C(C)(C)C)cc3)n2)c1` [Example 43, N^1—((S)-1-((2S,4R)-4-hydroxy-2-((4-(4-methylthiazol-5-yl)benzyl)carbamoyl)pyrrolidine-1-yl)-3,3-dimethyl-1-oxobutan-2-yl)-N^9-(4-(2-((4-(2-((E)-3-methylbenzylidene) hydrazino)-6-morpholinopyrimidin-2-yl)oxy)ethyl)phenyl)nonediamide] fall in the same range of DC50: 1 to 100 nM for the first, 1 to 100 nM for the second.

`Cc1cccc(/C=N/Nc2cc(N3CCOCC3)nc(OCCc3ccc(NC(=O)CCCCCCCCC(=O)N[C@H](C(=O)N4C[C@H](O)C[C@H]4C(=O)NCc4ccc(-c5scnc5C)cc4)C(C)(C)C)cc3)n2)c1` [Example 40, N^1—((S)-1-((2S,4R)-4-hydroxy-2-((4-(4-methylthiazol-5-yl)benzyl)carbamoyl)pyrrolidine-1-yl)-3,3-dimethyl-1-oxobutan-2-yl)-N^10-(4-(2-((4-(2-((E)-3-methylbenzylidene) hydrazino)-6-morpholinopyrimidin-2-yl)oxy)ethyl)phenyl)decanediamide] and `Cc1cccc(/C=N/Nc2cc(N3CCOCC3)nc(OCCc3ccc(NC(=O)CCCCCCCCCC(=O)N[C@H](C(=O)N4C[C@H](O)C[C@H]4C(=O)NCc4ccc(-c5scnc5C)cc4)C(C)(C)C)cc3)n2)c1` [Example 44, N^1—((S)-1-((2S,4R)-4-hydroxy-2-((4-(4-methylthiazol-5-yl)benzyl)carbamoyl)pyrrolidine-1-yl)-3,3-dimethyl-1-oxobutan-2-yl)-N^11-(4-(2-((4-(2-((E)-3-methylbenzylidene) hydrazino)-6-morpholinopyrimidin-2-yl)oxy)ethyl)phenyl)undecanediamide] fall in the same range of DC50: 1 to 100 nM for the first, 1 to 100 nM for the second.

`Cc1cccc(/C=N/Nc2cc(N3CCOCC3)nc(OCCc3ccc(NC(=O)CCCC(=O)N[C@H](C(=O)N4C[C@H](O)C[C@H]4C(=O)N[C@@H](C)c4ccc(-c5scnc5C)cc4)C(C)(C)C)cc3)n2)c1` [Example 45] and `Cc1cccc(/C=N/Nc2cc(N3CCOCC3)nc(OCCc3ccc(NC(=O)CCCCC(=O)N[C@H](C(=O)N4C[C@H](O)C[C@H]4C(=O)N[C@@H](C)c4ccc(-c5scnc5C)cc4)C(C)(C)C)cc3)n2)c1` [Example 46] fall in the same range of DC50: 1 to 100 nM for the first, 1 to 100 nM for the second.

`Cc1cccc(/C=N/Nc2cc(N3CCOCC3)nc(OCCc3ccc(NC(=O)CCCCCC(=O)N[C@H](C(=O)N4C[C@H](O)C[C@H]4C(=O)N[C@@H](C)c4ccc(-c5scnc5C)cc4)C(C)(C)C)cc3)n2)c1` [Example 47] and `Cc1cccc(/C=N/Nc2cc(N3CCOCC3)nc(OCCc3ccc(NC(=O)CCCCCCCCC(=O)N[C@H](C(=O)N4C[C@H](O)C[C@H]4C(=O)N[C@@H](C)c4ccc(-c5scnc5C)cc4)C(C)(C)C)cc3)n2)c1` [Example 48] fall in the same range of DC50: 1 to 100 nM for the first, 1 to 100 nM for the second.

`Cc1cccc(/C=N/Nc2cc(N3CCOCC3)nc(OCCc3ccc(NC(=O)CC[C@H](NC(=O)[C@@H]4C[C@@H](O)CN4C(=O)[C@@H](NC(=O)C4(F)CC4)C(C)(C)C)c4ccc(-c5scnc5C)cc4)cc3)n2)c1` [Example 49, (2S,4R)-1-((S)-2-(1-fluorocyclopropane-1-carboxamido)-3,3-dimethylbutanoyl)-4-hydroxy-N—((S)-4-((4-(2-((4-(2-((E)-3-methylbenzylidene)hydrazino)-6-morpholinopyrimidin-2-yl)oxy)ethyl)phenyl)amino)-1-(4-(4-methylthiazol-5-yl)phenyl)4-oxobutyl)pyrrolidine-2-carboxamide] and `Cc1cccc(/C=N/Nc2cc(N3CCOCC3)nc(OCCc3ccc(NC(=O)CNC(=O)CC[C@H](NC(=O)[C@@H]4C[C@@H](O)CN4C(=O)[C@@H](NC(=O)C4(F)CC4)C(C)(C)C)c4ccc(-c5scnc5C)cc4)cc3)n2)c1` [Example 50, (2S,4R)-1-((S)-2-(1-fluorocyclopropane-1-carboxamido)-3,3-dimethylbutanoyl)-4-hydroxy-N—((S)-4-((2-((4-(2-((4-(2-((E)-3-methylbenzylidene)hydrazino)-6-morpholinopyrimidin-2-yl)oxy)ethyl)phenyl)amino)-2-oxoethyl)amino)-1-(4-(4-methylthiazol-5-yl)phenyl)4-oxobutyl)pyrrolidine-2-carboxamide] fall in the same range of DC50: 1 to 100 nM for the first, 1 to 100 nM for the second.

`Cc1cccc(/C=N/Nc2cc(N3CCOCC3)nc(OCCc3ccc(NC(=O)CCCNC(=O)CC[C@H](NC(=O)[C@@H]4C[C@@H](O)CN4C(=O)[C@@H](NC(=O)C4(F)CC4)C(C)(C)C)c4ccc(-c5scnc5C)cc4)cc3)n2)c1` [Example 51, (2S,4R)-1-((S)-2-(1-fluorocyclopropane-1-carboxamido)-3,3-dimethylbutanoyl)-4-hydroxy-N—((S)-4-((4-((4-(2-((4-(2-((E)-3-methylbenzylidene)hydrazino)-6-morpholinopyrimidin-2-yl)oxy)ethyl)phenyl)amino)-4-oxobutyl)amino)-1-(4-(4-methylthiazol-5-yl)phenyl)4-oxobutyl)pyrrolidine-2-carboxamide] and `Cc1cccc(/C=N/Nc2cc(N3CCOCC3)nc(OCCc3ccc(NC(=O)CCCCCNC(=O)CC[C@H](NC(=O)[C@@H]4C[C@@H](O)CN4C(=O)[C@@H](NC(=O)C4(F)CC4)C(C)(C)C)c4ccc(-c5scnc5C)cc4)cc3)n2)c1` [Example 52, (2S,4R)-1-((S)-2-(1-fluorocyclopropane-1-carboxamido)-3,3-dimethylbutanoyl)-4-hydroxy-N—((S)-4-((6-((4-(2-((4-(2-((E)-3-methylbenzylidene)hydrazino)-6-morpholinopyrimidin-2-yl)oxy)ethyl)phenyl)amino)-6-oxohexyl)amino)-1-(4-(4-methylthiazol-5-yl)phenyl)4-oxobutyl)pyrrolidine-2-carboxamide] fall in the same range of DC50: 1 to 100 nM for the first, 1 to 100 nM for the second.

In the case of `Cc1cccc(/C=N/Nc2cc(N3CCOCC3)nc(OCCc3ccc(NC(=O)COc4cc(-c5scnc5C)ccc4CNC(=O)[C@@H]4C[C@@H](O)CN4C(=O)[C@@H](NC(=O)C4(F)CC4)C(C)(C)C)cc3)n2)c1` [Example 53, (2S,4R)-1-((S)-2-(1-fluorocyclopropane-1-carboxamido)-3,3-dimethylbutanoyl)-4-hydroxy-N-(2-(2-((4-(2-((4-(2-((E)-3-methylbenzylidene)hydrazino)-6-morpholinopyrimidin-2-yl)oxy)ethyl)phenyl)amino)-2-oxoethoxy)-4-(4-methylthiazol-5-yl)benzyl)pyrrolidine-2-carboxamide], the DC50 is reported as 1 to 100 nM.
